Source: PMC4604124, “In Vitro Characterization of the Pharmacological Properties of the Anti-Cancer Chelator, Bp4eT, and Its Phase I Metabolites” (PLoS ONE, 2015)
Where “and” joins values, the source holds several entries; their conditions need not be identical. Identical values can stand only once.

How the values were obtained:
[1] = Ascorbate oxidation assay (redox activity of iron complexes); format: biochemical;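 as to %Fe 30min (ascorbate oxidation, Fe 100%), průměr: IBE 3 means excess free chelator over iron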;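 as to %Fe 30min (ascorbate oxidation, Fe 100%): IBE 3 means excess free chelator over iron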;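 as to %Fe 30min (ascorbate oxidation, Fe = 100%), průměr (mean): IBE 1 means iron-binding equivalents giving fully coordinated iron-chelator complexes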;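 as to %Fe 30min (ascorbate oxidation, Fe = 100%), single replicates: IBE 1 means iron-binding equivalents giving fully coordinated iron-chelator complexes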;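 as to %Fe 30min: ascorbate oxidation as % of the Fe control (Fe 100%): IBE 0.1 means iron-binding equivalents with iron in excess over chelator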;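 as to Change of absorbance, odečet 0 (time 0 subtracted), čas 10, průměr: IBE 3 means excess free chelator over 10 µM FeCl3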;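 as to Change of absorbance, odečet 0 (time 0 subtracted), čas 10: IBE 3 means excess free chelator over 10 µM FeCl3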;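 as to Change of absorbance, odečet 0 (time 0 subtracted), čas 20, průměr: 100 µM ascorbate with 10 µM FeCl3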;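 as to Change of absorbance, odečet 0 (time 0 subtracted), čas 20: 100 µM ascorbate with 10 µM FeCl3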;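 as to Change of absorbance, odečet 0 (time 0 subtracted), čas 30, průměr: 100 µM ascorbate with 10 µM FeCl3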;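 as to Change of absorbance, odečet 0 (time 0 subtracted), čas 30: 100 µM ascorbate with 10 µM FeCl3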;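 as to odečet 0 (reading minus time 0 reading) at čas 20, single replicates: IBE 1 means fully coordinated iron chelator complexes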;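 as to odečet 0 (reading minus time 0 reading) at čas 30, průměr (mean): IBE 1 means fully coordinated iron chelator complexes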;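 as to odečet 0 (reading minus time 0 reading) at čas 30, single replicates: IBE 1 means fully coordinated iron chelator complexes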;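 as to raw reading at čas 20 (time 20), průměr (mean): IBE 1 means fully coordinated iron chelator complexes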;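 as to raw reading at čas 20 (time 20), single replicates: IBE 1 means fully coordinated iron chelator complexes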;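 as to raw reading at čas 30 (time 30), průměr (mean): IBE 1 means fully coordinated iron chelator complexes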;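 as to raw reading at čas 30 (time 30), single replicates: IBE 1 means fully coordinated iron chelator complexes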
H9c2 cardiomyoblasts = test: MTT cytotoxicity assay, H9c2 cells; format: cell-based, rat; conditions: H9c2, 10 000 b/j, sheet Bp4eA
Protocol: For cytotoxicity experiments, cancer cells were seeded at a density of 5,000 (MCF-7), 10,000 (HL-60) or 2,000 cells/well (HCT116 and A549) in 96-well plates (TPP) for 24 h/37°C prior to the addition of examined agents. The non-cancerous cells, 3T3 and H9c2 cells, were cultured for 24 h/37°C in 96-well plates at a density of 10,000 cells/well, the medium was then changed to serum- and pyruvate-free DMEM (Sigma-Aldrich) and incubated with the cells for another 24 h/37°C. The cytotoxic effects of Bp4eT and its metabolites were studied at different concentrations after a 72 h/37°C incubation. In order to aid the dissolution of the lipophilic ligands, 0.1% dimethyl sulfoxide (v/v) (DMSO; Sigma-Aldrich) was present in the culture medium of all groups. At this concentration, DMSO had no effect on cellular proliferation or viability.
The viability of cells were determined using an MTT assay (Sigma-Aldrich) according to previously established methods. The optical density of soluble MTT was measured at λ = 570 nm, subtracting the λ = 690 nm background using a Tecan Infinite 200M plate reader (Tecan Group, Männedorf, Switzerland). The viability or proliferation of experimental groups was expressed as a percentage of the untreated controls (100%).
SigmaStat for Windows 3.5 (Systat Software, San Jose, CA, USA) statistical software package was utilized to analyze results. The data are expressed as the mean ± SD of a given number of experiments. Statistical significance was determined using a one-way ANOVA with a Bonferroni post-hoc test or Student’s t-test. The results were considered to be statistically significant when p < 0.05. The IC50 values were calculated using CalcuSyn 2.0 software (Biosoft, Cambridge, UK). Cell cycle analysis was evaluated using MultiCycle AV Software (Phoenix Flow Systems, San Diego, CA, USA).

[2] = sheet IBE 1, time 10, replicates
[3] = sheet IBE 1, time 20, replicates
[4] = sheet IBE 1, time 30, replicates

Question: For CCN=CNN=C(c1ccccc1)c1ccccn1 [Bp4eA, N ^3-ethyl-N ^1-[phenyl(pyridin-2-yl)methylene]formamidrazone], which “%Fe 30min: ascorbate oxidation as % of the Fe control (Fe 100%)” value ([1]; IBE 0.1, 30 min, mean (průměr)) is on record?
Answer: 102.5%

Question: And the “Change of absorbance after subtraction of time 0 (odečet 0)” value (from here on “Change of absorbance … (odečet 0)”) ([1]; IBE 0.1, time 10, mean (průměr))?
Answer: -0.03561

Question: What about the “Change of absorbance … (odečet 0)” value ([1]; IBE 0.1, time 20, mean (průměr)) of the same compound?
Answer: -0.0674

Question: And the “Change of absorbance … (odečet 0)” value ([1]; IBE 0.1, time 30, mean (průměr))?
Answer: -0.09706

Question: And the “Absorbance (ascorbate, λ = 265 nm)” value ([1]; IBE 0.1, čas 0 (time 0), mean (průměr))?
Answer: 0.8401

Question: And the “Absorbance (ascorbate, λ = 265 nm)” value ([1]; IBE 0.1, čas 10 (time 10), mean (průměr))?
Answer: 0.8044

Question: And the “Absorbance (ascorbate, λ = 265 nm)” value ([1]; IBE 0.1, čas 20 (time 20), mean (průměr))?
Answer: 0.7727

Question: And the “Absorbance (ascorbate, λ = 265 nm)” value ([1]; IBE 0.1, čas 30 (time 30), mean (průměr))?
Answer: 0.743

Question: What about the “%Fe 30min (ascorbate oxidation, Fe = 100%), průměr (mean)” value ([1]; sheet IBE 1, 30min, Fe 100%, mean) of the same compound?
Answer: 106.5%

Question: What about the “%Fe 30min (ascorbate oxidation, Fe = 100%), single replicates” value ([1]; sheet IBE 1, 30min, Fe 100%, replicates) of the same compound?
Answer: 113.3% and 104.9% and 102.6% and 110.5% and 113.6% and 110.3% and 106.1% and 101.1% and 95.68%

Question: And the “raw reading at čas 0 (time 0), průměr (mean)” value ([1]; sheet IBE 1, time 0, mean of 9 readings)?
Answer: 0.8163

Question: What about the “raw reading at čas 0 (time 0), single replicates” value ([1]; sheet IBE 1, time 0, replicates of 2014-03-24 (two runs) and 2014-03-25) of the same compound?
Answer: 0.8356 and 0.8379 and 0.8058 and 0.8059 and 0.8041 and 0.8006 and 0.8152 and 0.8134 and 0.828

Question: And the “odečet 0 (reading minus time 0 reading) at čas 10, průměr (mean)” value ([1]; sheet IBE 1, time 10, mean)?
Answer: -0.03248

Question: And the “raw reading at čas 10 (time 10), průměr (mean)” value ([1]; sheet IBE 1, time 10, mean of 9 readings)?
Answer: 0.7838

Question: And the “odečet 0 (reading minus time 0 reading) at čas 10, single replicates” value [1, 2]?
Answer: -0.02971 and -0.02191 and -0.02781 and -0.03858 and -0.03648 and -0.03745 and -0.03205 and -0.03185

Question: And the “raw reading at čas 10 (time 10), single replicates” value [1, 2]?
Answer: 0.7761 and 0.784 and 0.7763 and 0.762 and 0.7787 and 0.7769 and 0.7906 and 0.8036 and 0.8061

Question: What about the “odečet 0 (reading minus time 0 reading) at čas 20, průměr (mean)” value ([1]; sheet IBE 1, time 20, mean) of the same compound?
Answer: -0.06498

Question: And the “raw reading at čas 20 (time 20), průměr (mean)” value ([1]; sheet IBE 1, time 20, mean of 9 readings)?
Answer: 0.7513

Question: What about the “odečet 0 (reading minus time 0 reading) at čas 20, single replicates” value [1, 3] of the same compound?
Answer: -0.0647 and -0.0595 and -0.0576 and -0.07087 and -0.07167 and -0.06987 and -0.06821 and -0.06221 and -0.06021

Question: And the “raw reading at čas 20 (time 20), single replicates” value [1, 3]?
Answer: 0.7411 and 0.7464 and 0.7465 and 0.7297 and 0.7435 and 0.7598 and 0.7734 and 0.7777

Question: And the “odečet 0 (reading minus time 0 reading) at čas 30, průměr (mean)” value ([1]; sheet IBE 1, time 30, mean)?
Answer: -0.09465

Question: And the “raw reading at čas 30 (time 30), průměr (mean)” value ([1]; sheet IBE 1, time 30, mean of 9 readings)?
Answer: 0.7216

Question: What about the “odečet 0 (reading minus time 0 reading) at čas 30, single replicates” value [1, 4] of the same compound?
Answer: -0.09786 and -0.09066 and -0.08866 and -0.09551 and -0.09811 and -0.09531 and -0.1001 and -0.09539 and -0.09029

Question: And the “raw reading at čas 30 (time 30), single replicates” value [1, 4]?
Answer: 0.7079 and 0.7152 and 0.7154 and 0.7051 and 0.7171 and 0.7181 and 0.7279 and 0.7402 and 0.7477

Question: What about the “%Fe 30min (ascorbate oxidation, Fe 100%), průměr” value ([1]; sheet IBE 3, 30min, Fe alone = 100%, mean (průměr) of the 9 replicates) of the same compound?
Answer: 105.3%

Question: What about the “%Fe 30min (ascorbate oxidation, Fe 100%)” value ([1]; sheet IBE 3, 30min, Fe alone = 100%, single replicates) of the same compound?
Answer: 100.1% and 103.3% and 98.42% and 112.4% and 108.5% and 106.2% and 109.9% and 107% and 102%

Question: And the “Change of absorbance, odečet 0 (time 0 subtracted), čas 10, průměr” value ([1]; sheet IBE 3, time 10 minus time 0, mean (průměr))?
Answer: -0.03537

Question: And the “Change of absorbance, odečet 0 (time 0 subtracted), čas 10” value ([1]; sheet IBE 3, time 10 minus time 0, single replicates)?
Answer: -0.03156 and -0.03676 and -0.03266 and -0.04073 and -0.03893 and -0.03883 and -0.03458 and -0.03388 and -0.03038

Question: And the “Change of absorbance, odečet 0 (time 0 subtracted), čas 20, průměr” value ([1]; sheet IBE 3, time 20 minus time 0, mean (průměr))?
Answer: -0.06757

Question: What about the “Change of absorbance, odečet 0 (time 0 subtracted), čas 20” value ([1]; sheet IBE 3, time 20 minus time 0, single replicates) of the same compound?
Answer: -0.06509 and -0.07099 and -0.06549 and -0.07376 and -0.07016 and -0.07036 and -0.06559 and -0.06109

Question: What about the “Change of absorbance, odečet 0 (time 0 subtracted), čas 30, průměr” value ([1]; sheet IBE 3, time 30 minus time 0, mean (průměr)) of the same compound?
Answer: -0.0973

Question: What about the “Change of absorbance, odečet 0 (time 0 subtracted), čas 30” value ([1]; sheet IBE 3, time 30 minus time 0, single replicates) of the same compound?
Answer: -0.09296 and -0.09586 and -0.09136 and -0.1043 and -0.1007 and -0.0986 and -0.1006 and -0.09796 and -0.09336

Question: And the “MTT, relative to control (0 = 100)” value (H9c2 cardiomyoblasts; 1 μM, průměr (mean))?
Answer: 96.26

Question: What about the “MTT, relative to control (0 = 100)” value (H9c2 cardiomyoblasts; 1 μM, single experiment (date)) of the same compound?
Answer: 96.9641 and 92.8493 and 97.4859 and 95.7195 and 98.2981

Question: And the “MTT, relative to control (0 = 100)” value (H9c2 cardiomyoblasts; 3 μM, průměr (mean))?
Answer: 96.27

Question: What about the “MTT, relative to control (0 = 100)” value (H9c2 cardiomyoblasts; 3 μM, single experiment (date)) of the same compound?
Answer: 100.784 and 93.7843 and 97.6949 and 91.6948 and 97.3803

Question: And the “MTT, relative to control (0 = 100)” value (H9c2 cardiomyoblasts; 10 μM, průměr (mean))?
Answer: 95.56

Question: And the “MTT, relative to control (0 = 100)” value (H9c2 cardiomyoblasts; 10 μM, single experiment (date))?
Answer: 96.5102 and 92.1411 and 95.5166 and 98.0809
